Results taken from patent publication US8871753B2, “Macrocyclic compounds and their use as kinase inhibitors” (Incyte Corporation, priority 2008, dated 2014).
Structures can show the parent of a compound that is named as a salt. Where two headings read alike, the source gives them in different places.

Legend:
Assay type in all cases: biochemical
[1] = biological target: T1, human JAK1 (a.a. 837-1142) (Homo sapiens, UniProt P23458); test: In vitro JAK kinase assay (HTRF, phosphorylation of a biotinylated peptide), JAK1; settings: read-out: JAK1 IC50
T1 construct: human JAK1 (a.a. 837-1142); His tag (N); made in house; host or cells: insect cells (baculovirus)
Method in brief: (§1)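 Kinase reactions ran at room temperature for 1 h with ATP matched per isoform (JAK1 90 μM, JAK2 30 μM, JAK3 3 μM). After an EDTA stop, the phosphorylated biotin-peptide was read by HTRF using Eu-Py20 and SA-APC after 40 min binding.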

[2] = biological target: T2, human JAK2 (a.a. 828-1132) (Homo sapiens, UniProt O60674); test: In vitro JAK kinase assay (HTRF, phosphorylation of a biotinylated peptide), JAK2
T2 construct: JAK2 (a.a. 828-1132); His tag (N); made in house; host or cells: insect cells (baculovirus)
Method in brief: as §1

[3] = biological target: T3, human JAK3 (a.a. 781-1124) (Homo sapiens, UniProt P52333); test: In vitro JAK kinase assay (HTRF, phosphorylation of a biotinylated peptide), JAK3
T3 construct: JAK3 (a.a. 781-1124); His tag (N); made in house; host or cells: insect cells (baculovirus)
Method in brief: as §1

TYK2 = TYK2 (Homo sapiens, UniProt P29597); test: TYK2 kinase inhibition (Table A1)
TYK2, sequence (P29597 whole entry): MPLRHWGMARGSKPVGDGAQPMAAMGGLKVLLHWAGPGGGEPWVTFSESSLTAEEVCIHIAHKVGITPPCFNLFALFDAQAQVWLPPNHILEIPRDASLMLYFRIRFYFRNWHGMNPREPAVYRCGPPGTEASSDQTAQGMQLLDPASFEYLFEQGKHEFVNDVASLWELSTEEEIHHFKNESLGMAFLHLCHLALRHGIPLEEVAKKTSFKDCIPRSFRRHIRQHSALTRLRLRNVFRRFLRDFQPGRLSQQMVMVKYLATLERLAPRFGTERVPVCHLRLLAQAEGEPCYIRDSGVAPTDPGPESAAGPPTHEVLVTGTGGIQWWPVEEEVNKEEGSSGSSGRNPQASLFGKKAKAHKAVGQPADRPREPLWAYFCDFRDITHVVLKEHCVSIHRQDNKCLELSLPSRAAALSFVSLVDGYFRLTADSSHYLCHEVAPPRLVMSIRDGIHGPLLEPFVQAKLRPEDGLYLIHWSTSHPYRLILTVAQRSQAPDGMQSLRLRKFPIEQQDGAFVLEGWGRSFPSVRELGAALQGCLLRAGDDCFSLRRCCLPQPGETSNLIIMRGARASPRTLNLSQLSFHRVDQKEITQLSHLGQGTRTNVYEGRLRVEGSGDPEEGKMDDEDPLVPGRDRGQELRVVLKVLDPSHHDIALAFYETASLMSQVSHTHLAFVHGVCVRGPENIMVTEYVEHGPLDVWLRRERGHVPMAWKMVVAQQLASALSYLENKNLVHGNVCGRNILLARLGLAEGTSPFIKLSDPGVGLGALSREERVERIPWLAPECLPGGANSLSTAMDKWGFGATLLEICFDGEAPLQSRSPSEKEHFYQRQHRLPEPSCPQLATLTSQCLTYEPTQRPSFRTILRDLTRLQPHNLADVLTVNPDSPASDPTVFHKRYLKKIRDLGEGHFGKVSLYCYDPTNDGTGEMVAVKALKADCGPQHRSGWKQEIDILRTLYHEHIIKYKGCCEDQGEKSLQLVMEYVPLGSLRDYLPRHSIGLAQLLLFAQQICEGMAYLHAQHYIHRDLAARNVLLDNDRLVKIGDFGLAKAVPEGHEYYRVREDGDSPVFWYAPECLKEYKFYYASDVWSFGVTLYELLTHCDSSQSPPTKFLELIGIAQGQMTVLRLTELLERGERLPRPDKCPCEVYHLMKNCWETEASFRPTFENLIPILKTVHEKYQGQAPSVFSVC

T1 sequence (P23458 849-1154): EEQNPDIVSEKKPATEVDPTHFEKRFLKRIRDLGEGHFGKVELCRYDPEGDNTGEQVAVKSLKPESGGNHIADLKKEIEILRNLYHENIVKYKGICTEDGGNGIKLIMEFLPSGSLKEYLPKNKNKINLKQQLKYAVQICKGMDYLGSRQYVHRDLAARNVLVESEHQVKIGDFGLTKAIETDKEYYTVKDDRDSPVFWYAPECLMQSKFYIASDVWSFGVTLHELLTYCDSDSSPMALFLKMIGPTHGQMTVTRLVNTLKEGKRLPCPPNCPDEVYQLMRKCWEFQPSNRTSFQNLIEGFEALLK
T3 sequence (P52333 781-1124): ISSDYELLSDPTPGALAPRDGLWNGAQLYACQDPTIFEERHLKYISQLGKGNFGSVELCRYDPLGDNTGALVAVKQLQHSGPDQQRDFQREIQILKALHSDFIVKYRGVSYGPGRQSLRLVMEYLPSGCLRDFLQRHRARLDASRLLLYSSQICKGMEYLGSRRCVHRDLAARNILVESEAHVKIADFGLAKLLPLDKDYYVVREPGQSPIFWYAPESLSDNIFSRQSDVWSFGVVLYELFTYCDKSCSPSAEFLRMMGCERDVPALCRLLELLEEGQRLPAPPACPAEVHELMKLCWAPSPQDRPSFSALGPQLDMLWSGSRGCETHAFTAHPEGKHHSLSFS
T2 sequence (O60674 828-1132): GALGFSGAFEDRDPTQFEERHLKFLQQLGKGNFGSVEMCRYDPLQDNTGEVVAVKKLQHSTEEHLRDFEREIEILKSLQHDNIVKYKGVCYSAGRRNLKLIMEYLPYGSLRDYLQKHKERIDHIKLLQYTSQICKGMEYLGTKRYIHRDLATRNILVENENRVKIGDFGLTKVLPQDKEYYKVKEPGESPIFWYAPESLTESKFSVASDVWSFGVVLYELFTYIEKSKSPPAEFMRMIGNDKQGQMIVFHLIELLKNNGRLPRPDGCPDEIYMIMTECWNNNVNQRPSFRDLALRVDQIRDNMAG

IC50 ([1]; Table D1) | IC50 ([2]; Table D1) | IC50 ([3]; Table D1) | IC50 (TYK2; Table D1) | IC50 [1] | IC50 [2] | IC50 [3] | IC50 (TYK2) | Structure (SMILES)
20 nM | 70 nM | > 400 nM | 59 nM |  |  |  |  | O=S(=O)(c1ccccc1F)N1CCC(CCNc2ccc3cc2CCc2cncc(c2)Nc2ncc(Cl)c(n2)N3)CC1 [Example D221, 6-Chloro-N-(2-{1-[(2-fluorophenyl)sulfonyl]piperidin-4-yl}ethyl)-2,4,8,18,22-pentaazatetracyclo[14.3.1.1(3,7).1(9,13)]docosa-1(20),3(22),4,6,9(21),10,12,16,18-nonaen-12-amine tris(trifluoroacetate)]
117 nM | 244 nM | > 400 nM | > 400 nM |  |  |  |  | Cc1noc(C)c1NC(=O)N1CCC(CCOc2ccc3cc2CCc2cncc(c2)Nc2ncc(Cl)c(n2)N3)CC1 [Example D171, 4-(2-{[6-Chloro-2,4,8,18,22-pentaazatetracyclo[14.3.1.1(3,7).1(9,13)]docosa-1(20),3(22),4,6,9(21),10,12,16,18-nonaen-12-yl]oxy}ethyl)-N-(3,5-dimethylisoxazol-4-yl)piperidine-1-carboxamide bis(trifluoroacetate)]
 |  |  |  | 67 nM | 134 nM | 1140 nM | 300 nM | O=C(Cc1coc2ccccc12)Nc1ccc2cc1CCc1cccc(c1)Nc1ncc(Cl)c(n1)N2 [Example C47, 2-(1-Benzofuran-3-yl)-N-[6-chloro-2,4,8,22-tetraazatetracyclo[14.3.1.1(3,7).1(9,13)]docosa-1(20),3(22),4,6,9(21),10,12,16,18-nonaen-12-yl]acetamide trifluoroacetate]
5.7 nM | 8 nM | 65 nM | 21 nM |  |  |  |  | O=C(C[C@H]1CCCN(C(=O)Nc2ccccc2)C1)Nc1ccc2cc1CCc1cncc(c1)Nc1ncc(Cl)c(n1)N2 [Example D199, (3R)-3-(2-{[6-Chloro-2,4,8,18,22-pentaazatetracyclo[14.3.1.1(3,7).1(9,13)]docosa-1(20),3(22),4,6,9(21),10,12,16,18-nonaen-12-yl]amino}-2-oxoethyl)-N-phenylpiperidine-1-carboxamide bis(trifluoroacetate)]
23 nM | 276 nM | > 400 nM | 300 nM |  |  |  |  | Clc1cnc2nc1Nc1ccc(NCCC3CCNCC3)c(c1)CCc1cncc(c1)N2 [Example D216, 6-Chloro-N-(2-piperidin-4-ylethyl)-2,4,8,18,22-pentaazatetracyclo[14.3.1.1(3,7).1(9,13)]docosa-1(20),3(22),4,6,9(21),10,12,16,18-nonaen-12-amine tetrakis(trifluoroacetate)]
 |  |  |  | 33 nM | 42 nM | 663 nM | 103 nM | O=C(Cc1ccco1)Nc1ccc2cc1CCc1cccc(c1)Nc1ncc(Cl)c(n1)N2 [Example C36, N-[6-Chloro-2,4,8,22-tetraazatetracyclo[14.3.1.1(3,7).1(9,13)]docosa-1(20),3(22),4,6,9(21),10,12,16,18-nonaen-12-yl]-2-(2-furyl)acetamide trifluoroacetate]
226 nM | > 400 nM | > 400 nM | > 400 nM |  |  |  |  | O=C(c1cccnc1Cl)N1CCC(CCOc2ccc3cc2CCc2cncc(c2)Nc2ncc(Cl)c(n2)N3)CC1 [Example D179, 6-Chloro-12-(2-{1-[(2-chloropyridin-3-yl)carbonyl]piperidin-4-yl}ethoxy)-2,4,8,18,22-pentaazatetracyclo[14.3.1.1(3,7).1(9,13)]docosa-1(20),3(22),4,6,9(21),10,12,16,18-nonaene tris(trifluoroacetate)]
35 nM | 67 nM | > 400 nM | > 400 nM |  |  |  |  | O=C(COc1ccc2cc1CCc1cncc(c1)Nc1ncc(Cl)c(n1)N2)N1CCN(S(=O)(=O)c2ccccc2F)CC1 [Example D253, 6-Chloro-12-(2-{4-[(2-fluorophenyl)sulfonyl]piperazin-1-yl}-2-oxoethoxy)-2,4,8,18,22-pentaazatetracyclo[14.3.1.1(3,7).1(9,13)]docosa-1(20),3(22),4,6,9(21),10,12,16,18-nonaene bis(trifluoroacetate)]
32 nM | 32 nM | 79 nM | > 1000 nM |  |  |  |  | O=C(Cn1c(=O)oc2c3cc(cc21)Nc1nc(ncc1Cl)Nc1cccc(c1)CC3)N1CCN(c2ccccc2)CC1 [Example D188, 4-Chloro-20-[2-oxo-2-(4-phenylpiperazin-1-yl)ethyl]-18-oxa-2,6,8,20,25-pentaazapentacyclo[14.6.1.1(3,7).1(9,13).0(17,21)]pentacosa-1(23),3(25),4,6,9(24),10,12,16,21-nonaen-19-one bis(trifluoroacetate)]
57 nM | 244 nM | > 400 nM | > 400 nM |  |  |  |  | O=C(Nc1cccs1)N1CCC(CCOc2ccc3cc2CCc2cncc(c2)Nc2ncc(Cl)c(n2)N3)CC1 [Example D167, 4-(2-{[6-Chloro-2,4,8,18,22-pentaazatetracyclo[14.3.1.1(3,7).1(9,13)]docosa-1(20),3(22),4,6,9(21),10,12,16,18-nonaen-12-yl]oxy}ethyl)-N-2-thienylpiperidine-1-carboxamide bis(trifluoroacetate)]
244 nM | 341 nM | > 400 nM | > 400 nM |  |  |  |  | Cc1cc(C(=O)N2CCC(Nc3ccc4cc3CCc3cncc(c3)Nc3ncc(Cl)c(n3)N4)CC2)no1 [Example D160, 6-Chloro-N-{1-[(5-methylisoxazol-3-yl)carbonyl]piperidin-4-yl}-2,4,8,18,22-pentaazatetracyclo[14.3.1.1(3,7).1(9,13)]docosa-1(20),3(22),4,6,9(21),10,12,16,18-nonaen-12-amine tris(trifluoroacetate)]
8.1 nM | 9.3 nM | 34 nM | 12 nM |  |  |  |  | CC(=O)N1CCC[C@@H](CC(=O)Nc2ccc3cc2CCc2cccc(c2)Nc2ncc(Cl)c(n2)N3)C1 [Example D200, 2-[(3S)-1-Acetylpiperidin-3-yl]-N-[6-chloro-2,4,8,22-tetraazatetracyclo[14.3.1.1(3,7).1(9,13)]docosa-1(20),3(22),4,6,9(21),10,12,16,18-nonaen-12-yl]acetamide trifluoroacetate]
34 nM | 235 nM | > 400 nM | > 400 nM |  |  |  |  | CNC(=O)N1CCN(C(=O)COc2ccc3cc2CCc2cncc(c2)Nc2ncc(Cl)c(n2)N3)CC1 [Example D265, 4-({[6-Chloro-2,4,8,18,22-pentaazatetracyclo[14.3.1.1(3,7).1(9,13)]docosa-1(20),3(22),4,6,9(21),10,12,16,18-nonaen-12-yl]oxy}acetyl)-N-methylpiperazine-1-carboxamide bis(trifluoroacetate)]
 |  |  |  | 43 nM | 59 nM | 1290 nM | 501 nM | O=C(c1cccnc1)N1Cc2cccc(c2)Nc2ncc(Cl)c(n2)Nc2cccc1c2 [Example C27, 6-Chloro-14-(pyridin-3-ylcarbonyl)-2,4,8,14,22-pentaazatetracyclo[14.3.1.1(3,7).1(9,13)]docosa-1(20),3(22),4,6,9(21),10,12,16,18-nonaene]
18 nM | 3.3 nM | 34 nM | 30 nM |  |  |  |  | NC(=O)N1CCN(c2ccc3cc2CCc2cccc(c2)Nc2ncc(Cl)c(n2)N3)CC1 [Example D87, 4-[6-Chloro-2,4,8,22-tetraazatetracyclo[14.3.1.1(3,7).1(9,13)]docosa-1(20),3(22),4,6,9(21),10,12,16,18-nonaen-12-yl]piperazine-1-carboxamide bis(trifluoroacetate)]
80 nM | 358 nM | > 400 nM | > 400 nM |  |  |  |  | O=C(COc1ccc2cc1CCc1cncc(c1)Nc1ncc(Cl)c(n1)N2)N1CCN(c2cc(Cl)ccn2)CC1 [Example D244, 6-Chloro-12-{2-[4-(4-chloropyridin-2-yl)piperazin-1-yl]-2-oxoethoxy}-2,4,8,18,22-pentaazatetracyclo[14.3.1.1(3,7).1(9,13)]docosa-1(20),3(22),4,6,9(21),10,12,16,18-nonaene tris(trifluoroacetate)]
112 nM | 49 nM | 149 nM | 195 nM |  |  |  |  | O=C(c1ccc(C(F)(F)F)cc1)N1CCN(c2ccc3cc2CCc2cccc(c2)Nc2ncc(Cl)c(n2)N3)CC1 [Example D96, 6-Chloro-12-{4-[4-(trifluoromethyl)benzoyl]piperazin-1-yl}-2,4,8,22-tetraazatetracyclo[14.3.1.1(3,7).1(9,13)]docosa-1(20),3(22),4,6,9(21),10,12,16,18-nonaene bis(trifluoroacetate)]
> 400 nM | 371 nM | > 400 nM | > 400 nM |  |  |  |  | O=C(Nc1ccccc1)N1CCC(COc2ccc3cc2CCc2cncc(c2)Nc2ncc(Cl)c(n2)N3)CC1 [Example D228, 4-({[6-Chloro-2,4,8,18,22-pentaazatetracyclo[14.3.1.1(3,7).1(9,13)]docosa-1(20),3(22),4,6,9(21),10,12,16,18-nonaen-12-yl]oxy}methyl)-N-phenylpiperidine-1-carboxamide bis(trifluoroacetate)]
6.6 nM | 53 nM | > 1000 nM | 106 nM |  |  |  |  | O=C(C[C@H]1CCN(c2nc3ccccc3s2)C1)Nc1ccc2cc1CCc1cncc(c1)Nc1ncc(Cl)c(n1)N2 [Example D136, 2-[(3R)-1-(1,3-Benzothiazol-2-yl)pyrrolidin-3-yl]-N-[6-chloro-2,4,8,18,22-pentaazatetracyclo[14.3.1.1(3,7).1(9,13)]docosa-1(20),3(22),4,6,9(21),10,12,16,18-nonaen-12-yl]acetamide tris(trifluoroacetate)]
